Data set [1] can be described thus: Summary of photophysical properties (absorption, emission, relative fluorescence, quantum yield). The format is physicochemical. Conditions: head is a formula, relative to IRDye 800 CW.
A short description of data set [2]: Absorption wavelength of the cyanine dyes in methanol (halo substitution effect). The format is physicochemical. The conditions noted are these: Table 2. An excerpt:
Design Principle: We analyzed the properties of a dye scaffold and related compounds and the corresponding substitution effects on the excitation and emission wavelengths. The small size of fluorine is unlikely to produce steric effects, therefore, we explored the electronic effects of fluorine and related substitutions. The Hammett equation (σ-value) is an important tool to understand the electronic effects of the substituents, therefore, we explored the correlation of the wavelength (λMeOH) and the σ-value (vide infra): […]

A short description of data set [3]: In vivo clearance, Pearl Impulse imaging. Further details: species or system nude mice. Conditions: for Total: 800 channel; for clearance in vivo (clearance series): FIG. 9, 1 nmole injected, imaged over 24 h. The procedure:
Two nude mice were injected with 1 nmole of either compound 16 or IRDye 800CW carboxylate. They were then imaged longitudinally over the next 24 h with the Pearl Impulse imaging system. The results are presented in FIG. 9: in vivo clearance in nudes (FIG. 9A), whole body dorsal views (FIG. 9B), and the rate of clearance (FIG. 9C). The clearance data is presented below in Table 4.

The subject of another data set is U87GM cells. Description: Immunocytochemical binding, blocking and dye control assay, U87GM. The conditions noted are these: dye control up to 5 μM, FIG. 7C. The format is cell-based. The procedure: RGD (Arg-Gly-Asp), the recognition motif used to bind the integrin receptors, was labeled with compound 17. The characteristics of RGD/17 conjugate and the analogous dye carboxylate 16 were evaluated in a cell-based assay.
Compound 17 was conjugated to the peptide RGD by the general procedure set forth in Example 32.
The cell lines U87GM and PC3MLN4 were assayed. Assays included binding, blocking, and carboxylate control. Serial dilutions of compound 16 were prepared at concentrations of 200-6.25 nM. Blocking was accomplished with unlabeled RGD at concentrations of 10-0.31 μM with the addition of 200 nM compound 17-RGD conjugates in all test wells. The compound 16 was evaluated as a dye control for non-specific binding at relatively high levels from 5-0.16 μM with U87GM cells and 1-0.002 μM with PC3 cells.
In the second round of testing with U87GM cells, concentrations of unlabeled RGD and compound 17/RGD were increased (FIGS. 8A and 8B). Binding assay concentrations utilized 0.8-400 nM while the blocking assay used 0.06-30 μM unlabeled RGD with an addition of 200 nM 17/RGD.

The conditions of data set [4]: value used for the standard IRDye 800 CW; cited from earlier work.

For `CC1(C)C(/C=C/C2=C(c3cccc(F)c3F)C(=C/C=C3/N(CCCCS(=O)(=O)[O-])c4ccc(S(=O)(=O)[O-])cc4C3(C)C)/CCC2)=[N+](CCCCS(=O)(=O)[O-])c2ccc(S(=O)(=O)[O-])cc21.[Na+].[Na+].[Na+]` [Compound 62k], in data set [1], the “[formula] Odyssey” value stood at 104% and the “[formula] Fluorimeter” value came out at 100%.

With `CC1(C)C(/C=C/C2=C(c3cccc(F)c3F)C(=C/C=C3/N(CCCCS(=O)(=O)[O-])c4ccc(S(=O)(=O)[O-])cc4C3(C)C)/CC(C(=O)O)C2)=[N+](CCCCS(=O)(=O)[O-])c2ccc(S(=O)(=O)[O-])cc21.[Na+].[Na+].[Na+]` (stereo not drawn) [Compound 63a], the λMeOH in data set [2] is 770 nm.

`CCCCOc1c(F)c(F)c(C2=C(/C=C/C3=[N+](CCCCS(=O)(=O)[O-])c4ccc(S(=O)(=O)[O-])cc4C3(C)C)CCC/C2=C\C=C2\N(CCCCS(=O)(=O)[O-])c3ccc(S(=O)(=O)[O-])cc3C2(C)C)c(F)c1F.[Na+].[Na+].[Na+]` [Compound 24] displayed a λMeOH in data set [2] of 790 nm.

Regarding “IRDye 800CW carboxylate [reference compound]”, the Total is on record as 114295.49 in data set [3] (3 min); 306555.97 in data set [3] (19 min); 291381.69 in data set [3] (47 min); 272408.13 in data set [3] (74 min); 154950.09 in data set [3] (192 min); 102698.54 in data set [3] (278 min). For the same compound, in data set [3] (1439 min), the Total is 2336.87. In addition, the “clearance in vivo (clearance series)” value in data set [3] is “good clearance in vivo”.

Turning to `CC1(C)C(/C=C/C2=C(c3c(F)cc(F)cc3F)C(=C/C=C3/N(CCCS(=O)(=O)[O-])c4ccc(S(=O)(=O)[O-])cc4C3(C)C)/CC(C(=O)O)C2)=[N+](CCCS(=O)(=O)[O-])c2ccc(S(=O)(=O)[O-])cc21.[Na+].[Na+].[Na+]` (stereo not drawn) [Compound 16], in the data set on U87GM cells, the “concentration above which relatively high non-specific binding of the dye alone was noted” value is “above 2 μM”. Besides, the Total in data set [3] (1 min) was 109682.80; in data set [3] (17 min), 282046.59; in data set [3] (45 min), 286573.94; in data set [3] (71 min), 266647.59; in data set [3] (190 min), 139736.97; in data set [3] (276 min), 76493.30. In data set [3] (1435 min), the Total is 1652.69. In data set [3], the “clearance in vivo (clearance series)” value was “good clearance in vivo”.

On to `CC1(C)C(=CC=C2CCCC(C=CC3=[N+](CCCCCC(=O)[O-])c4ccc(S(=O)(=O)[O-])cc4C3(C)C)=C2Oc2ccc(S(=O)(=O)[O-])cc2)N(CCCCS(=O)(=O)[O-])c2ccc(S(=O)(=O)[O-])cc21.[Na+].[Na+].[Na+].[Na+]` [IRDye 800CW, reference compound], for which, in data set [1], the “[formula] Odyssey” value amounted to 100% and the “[formula] Fluorimeter” value worked out at 100%. In addition, the “Quantum Yield of the standard” value in data set [4] was 0.07.

(Values after US9248203B2, “Fluorescent imaging with substituted cyanine dyes” (LI-COR, INC., priority 2010, dated 2016).)
